Data set [1] relates to Oryctolagus sp. Conditions: for LD50: acute; for NOAEL: reproduction developmental.
Data set [2] relates to Rattus norvegicus. The settings on record: for LC50 / LD50: acute.
Where [3] appears, read: developmental, duration: 10 days, oral, gavage, Sprague-Dawley.
[4] abbreviates: reproduction developmental, duration: 10 days, oral, gavage, F, Sprague-Dawley.
Where [5] appears, read: reproduction developmental, duration: 4 weeks, inhalation, particle, Sprague-Dawley.
The mark [6] stands for this setting: short-term, duration: 4 weeks, oral, diet, Crl:CD(SD).
Setting [7] is: chronic, oral, diet, Sprague-Dawley.

Values joined by “and” are separate entries in the source; they are usually repeats but may differ in a detail not shown here. Identical values can stand only once. Some results are limits rather than exact numbers.

By LD50 is commonly meant the dose at which mortality reaches 50%. A high value points to a less toxic substance. The term NOAEL denotes the highest dose or exposure tested at which no adverse effect was seen. The LOAEL is the lowest dose or exposure tested at which an adverse effect was seen.

For the compound `CC(C)C(C)(N)C#N` (stereo not drawn) [2-Amino-2,3-dimethylbutanenitrile], the LD50 in data set [1] (dermal, occlusive, New Zealand) stood at 23 mg/kg; in data set [2] (oral, gavage, Sprague-Dawley), 83 mg/kg. The LC50 in data set [2] (inhalation, Sprague-Dawley) was 422 mg/m3 and 335 mg/m3. This compound also came in with an NOAEL in data set [2] (short-term, duration: 28 days, dermal, occlusive, Charles River (Sprague-Dawley derived)) of 3 mg/kg-day.

For the compound `O=P(OC(CCl)CCl)(OC(CCl)CCl)OC(CCl)CCl` [Tris(1,3-dichloro-2-propyl) phosphate], the LD50 is over 4640 mg/kg in data set [1] (dermal); 6800 mg/kg in data set [1] (oral, gavage, Dutch-belted); 3160 mg/kg in data set [2] (oral, gavage, Sprague-Dawley). Further, the NOAEL in data set [2] (chronic, duration: 12 months, oral, diet, Sprague-Dawley) was determined as 5 mg/kg-day; in data set [2] (setting [3]), 100 mg/kg-day; in data set [2] (setting [4]), 25 mg/kg-day.

For the compound `CCNc1ccccc1` [N-Ethylaniline], the LD50 in data set [1] (dermal, New Zealand) was over 2000 mg/kg; in data set [2] (dermal) it was 1920 mg/kg; in data set [2] (oral) it was 300 mg/kg; in data set [2] (oral, gavage, Sprague-Dawley), ≥ 332 mg/kg and ≤ 402 mg/kg. In addition, the LC50 in data set [2] (inhalation, Sprague-Dawley) is ≥ 1.13 µg/mL and ≤ 1.48 µg/mL.

On to `c1ccc2sc(SN3CCOCC3)nc2c1` [N-Oxydiethylene-2-benzothiazylsulfenamide], for which the LD50 was over 5010 mg/kg in data set [1] (dermal, occlusive, New Zealand); 7000 mg/kg in data set [2] (oral); 12600 mg/kg and > 7940 mg/kg in data set [2] (oral, gavage, Sprague-Dawley); over 10000 mg/kg in data set [2] (oral, gavage, Wistar). For the same compound, the NOAEL in data set [1] (duration: 21 days, dermal, New Zealand) came to 2000 mg/kg-day; in data set [2] (developmental, duration: 10 days, oral, gavage) it was 1000 mg/kg-day; in data set [2] (developmental, duration: 21 days, oral, diet, Wistar), 270 mg/kg-day; in data set [2] (setting [5]), 9.8 mg/m3; in data set [2] (reproduction developmental, duration: 10 days, oral, gavage, F), 100 mg/kg-day; in data set [2] (reproduction developmental, duration: 21 days, oral, diet, F, Wistar) it was 270 mg/kg-day. This compound came in with an NOAEL in data set [2] (setting [6]) of 200 mg/kg-day. The LC50 in data set [2] (inhalation, particle) is over 151 µg/mL. Also, the values for the LOAEL in data set [2] (setting [5]) and in data set [2] (setting [6]) were 10.2 mg/m3 and 500 mg/kg-day, respectively.

With `CC(C)CC(C)Nc1ccc(Nc2ccccc2)cc1` (stereo not drawn) [6PPD], the LD50 in data set [1] (dermal, occlusive, New Zealand) was over 7940 mg/kg; in data set [2] (oral, Sprague-Dawley), over 5000 mg/kg; in data set [2] (oral, gavage, Sprague-Dawley), 3580 mg/kg. The NOAEL in data set [1] (duration: 13 days, oral, F, New Zealand) is 30 mg/kg-day; in data set [2] (setting [3]), over 250 mg/kg-day; in data set [2] (reproduction developmental, duration: 23 weeks, oral, diet, Sprague-Dawley, generation: F0), 100 ppm; in data set [2] (reproduction developmental, duration: 23 weeks, oral, diet, Sprague-Dawley, generation: F1) it was 1000 ppm; in data set [2] (reproduction developmental, duration: 23 weeks, oral, diet, Sprague-Dawley, generation: F2), 1000 ppm; in data set [2] (setting [4]) it was 50 mg/kg-day. Further, the NOAEL in data set [2] (reproduction developmental, duration: 21 days, oral, gavage, Sprague-Dawley, generation: F0) was over 1000 ppm; in data set [2] (reproduction developmental, duration: 21 days, oral, gavage, Sprague-Dawley, generation: F1), over 1000 ppm; in data set [2] (subchronic, duration: 90 days, oral, diet, Sprague-Dawley) it was 24 mg/kg-day. The lowest observed adverse effect level (LOAEL) in data set [2] (short-term, duration: 4 weeks, inhalation, particle, Sprague-Dawley) was found to be 50 mg/m3.

In the case of `O=C(Cl)c1ccccc1` [Benzoyl chloride], the LD50 in data set [1] (dermal) is 790 mg/kg; in data set [1] (dermal, occlusive, New Zealand), over 2000 mg/kg; in data set [2] (oral), 2460 mg/kg and 1900 mg/kg; in data set [2] (oral, Spartan), 2620 mg/kg; in data set [2] (oral, gavage, Wistar) it was 2530 mg/kg. Further, the LC50 was 1.87 µg/mL in data set [2] (inhalation); 1.45 µg/mL and > 1.98 µg/mL and > 2.34 µg/mL in data set [2] (inhalation, Wistar).

Regarding `[Na+].[S-]c1nc2ccccc2s1` [Sodium 2-mercaptobenzothiolate], the LD50 was over 7940 mg/kg in data set [1] (dermal); over 7940 mg/kg in data set [1] (dermal, occlusive, New Zealand); 4350 mg/kg in data set [2] (oral); 1480 mg/kg and 4350 mg/kg in data set [2] (oral, Sprague-Dawley). In addition, the LC50 in data set [2] (inhalation) was over 6.5 µg/mL; in data set [2] (inhalation, Sprague-Dawley), over 1.3 µg/mL.

In the case of `O=C1c2ccccc2C(=O)N1SC1CCCCC1` [N-(Cyclohexylthio)phthalimide], the LD50 in data set [1] (dermal, occlusive, New Zealand) was over 5010 mg/kg. Besides, in data set [2] (setting [7]), the LOAEL came out at 150 mg/kg-day and the NOAEL came out at 50 mg/kg-day.

For the origin of these results see EPA's ToxValDB 9.5.
